According to patent US11225505B2, “Antimicrobial polymyxin derivative compounds” (MONASH UNIVERSITY, priority 2015, dated 2022):
Values after ≈ are worked out from the molar mass of the structure shown. Where a SMILES comes first, the peptide text is derived from it. Bridges are numbered along the chain shown (N, C = ends). [ ]: non-standard residue; d: D form. The star is where a group is joined. X41 = O=C(c1cc2cc(F)c(F)cc2[nH]1)*; X23 = O=C(c1cc2ccccc2[nH]1)*; X2 = O=C(c1cc(Cl)cc(Cl)n1)*; X36 = O=C(c1ncc(Br)cc1Br)*; X50 = O=C(c1sc(Br)cc1Br)*; X29 = O=C(c1cc(Cl)ccn1)*; X59 = Cn1c(Br)ccc1C(=O)*; Dab = NCC[C@H](N)C(=O)O; X3 = O=C(c1cncc(Cl)c1)*; X70 = O=C(c1csc(Br)c1)*; Abu = CC[C@H](N)C(=O)O; Dap = NC[C@H](N)C(=O)O

What was measured:
Assay type in all cases: cell-based
[1] = test system: Pseudomonas aeruginosa FADDI-PA01; settings: FADDI-
Procedure, shortened: (§1)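 Following CLSI procedure M100-S24, minimum inhibitory concentrations of trifluoroacetate lipopeptides are measured in cation-adjusted Mueller-Hinton medium by broth microdilution, alongside a polymyxin B sulphate control.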

[2] = test system: Klebsiella pneumoniae FADDI-KP022; settings: FADDI-KP022
Procedure, shortened: as §1

[3] = test system: Acinetobacter baumannii FADDI-AB034; settings: FADDI-AB034
Procedure, shortened: as §1

[4] = test system: Klebsiella pneumoniae Kp BM1; settings: Kp BM1
Procedure, shortened: (§2)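 The read-out is the MIC, obtained by CLSI broth microdilution (M100-S24) in cation-adjusted Mueller-Hinton broth. The compounds were lipopeptide TFA salts, and polymyxin B sulphate served as control.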

[5] = test system: Enterobacter cloacae FADDI-EC003; settings: FADDI-EC003
Procedure, shortened: as §1

[6] = test system: Klebsiella pneumoniae FADDI-KP032; settings: FADDI-KP032
Procedure, shortened: as §1

[7] = test system: Pseudomonas aeruginosa ATCC 27853; settings: ATCC 27853
Procedure, shortened: as §1

[8] = test system: Acinetobacter baumannii ATCC 17978; settings: ATCC 17978
Procedure, shortened: as §1

[9] = test system: Enterobacter cloacae FADDI-EC001; settings: FADDI-EC001
Procedure, shortened: as §2

[10] = test system: Pseudomonas aeruginosa FADDI-PA038; settings: FADDI-PA038
Procedure, shortened: as §1

[11] = test system: Pseudomonas aeruginosa FADDI-PA022; settings: FADDI-PA022
Procedure, shortened: as §1

[12] = test system: Enterobacter cloacae FADDI-EC006; settings: FADDI-EC006
Procedure, shortened: as §1

[13] = test system: Acinetobacter baumannii FADDI-AB030; assay: microbe, parasite or virus in culture; settings: FADDI-AB030
Procedure, shortened: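 Lipopeptide TFA salts tested against the multidrug-resistant clinical isolate by CLSI (M100-S24) broth microdilution in cation-adjusted Mueller-Hinton broth, with polymyxin B sulphate as control; MIC read.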

SMILES | Minimum inhibitory concentration [1] | Minimum inhibitory concentration [2] | Minimum inhibitory concentration [3] | Minimum inhibitory concentration [4] | Minimum inhibitory concentration [5] | Minimum inhibitory concentration [6] | Minimum inhibitory concentration [7] | Minimum inhibitory concentration [8] | Minimum inhibitory concentration [9] | Minimum inhibitory concentration [10] | Minimum inhibitory concentration [11] | Minimum inhibitory concentration [12] | Minimum inhibitory concentration [13]
CC[C@@H]1NC(=O)[C@@H](CC(C)C)NC(=O)[C@H](CCN)NC(=O)[C@@H](NC(=O)[C@H](CN)NC(=O)[C@@H](NC(=O)[C@H](CCN)NC(=O)c2csc(Br)c2)[C@@H](C)O)CCNC(=O)[C@H]([C@@H](C)O)NC(=O)[C@H](CCN)NC(=O)[C@H](CCN)NC1=O [Compound 101] (X70-[Dab]T[Dap][Dab][Dab][dL][Abu][Dab][Dab]T; lactam 4-C) | 0.25 µg/mL (≈ 0.213 µM) | 1 µg/mL (≈ 0.85 µM) | 0.5 µg/mL (≈ 0.425 µM) | 0.5 µg/mL (≈ 0.425 µM) | 0.5 µg/mL (≈ 0.425 µM) | 0.5 µg/mL (≈ 0.425 µM) | 0.25 µg/mL (≈ 0.213 µM) | 0.5 µg/mL (≈ 0.425 µM) | 0.5 µg/mL (≈ 0.425 µM) | 0.5 µg/mL (≈ 0.425 µM) | 0.25 µg/mL (≈ 0.213 µM) | 0.5 µg/mL (≈ 0.425 µM) | 0.5 µg/mL (≈ 0.425 µM)
CC[C@@H]1NC(=O)[C@@H](CC(C)C)NC(=O)[C@H](CCN)NC(=O)[C@@H](NC(=O)[C@H](CN)NC(=O)[C@@H](NC(=O)[C@H](CCN)NC(=O)c2cc3cc(F)c(F)cc3[nH]2)[C@@H](C)O)CCNC(=O)[C@H]([C@@H](C)O)NC(=O)[C@H](CCN)NC(=O)[C@H](CCN)NC1=O [Compound 60] (X41-[Dab]T[Dap][Dab][Dab][dL][Abu][Dab][Dab]T; lactam 4-C) | 0.5 µg/mL (≈ 0.429 µM) | 0.5 µg/mL (≈ 0.429 µM) | 0.5 µg/mL (≈ 0.429 µM) | 0.5 µg/mL (≈ 0.429 µM) | 0.25 µg/mL (≈ 0.214 µM) | 0.5 µg/mL (≈ 0.429 µM) | 0.5 µg/mL (≈ 0.429 µM) | 1 µg/mL (≈ 0.857 µM) | 0.25 µg/mL (≈ 0.214 µM) | 1 µg/mL (≈ 0.857 µM) | 0.5 µg/mL (≈ 0.429 µM) | 1 µg/mL (≈ 0.857 µM) | 0.5 µg/mL (≈ 0.429 µM)
CC(C)C[C@H]1NC(=O)[C@H](CCN)NC(=O)[C@@H](NC(=O)[C@H](CN)NC(=O)[C@@H](NC(=O)[C@H](CCN)NC(=O)c2sc(Br)cc2Br)[C@@H](C)O)CCNC(=O)[C@H]([C@@H](C)O)NC(=O)[C@H](CCN)NC(=O)[C@H](CCN)NC(=O)[C@H]([C@@H](C)O)NC1=O [Compound 100] (X50-[Dab]T[Dap][Dab][Dab][dL]T[Dab][Dab]T; lactam 4-C) | <0.125 µg/mL | <0.125 µg/mL | 0.5 µg/mL (≈ 0.393 µM) | 0.5 µg/mL (≈ 0.393 µM) | <0.125 µg/mL | 0.25 µg/mL (≈ 0.197 µM) | <0.125 µg/mL | 0.25 µg/mL (≈ 0.197 µM) | <0.125 µg/mL | 1 µg/mL (≈ 0.787 µM) | <0.125 µg/mL | <0.125 µg/mL | 0.5 µg/mL (≈ 0.393 µM)
CC(C)C[C@H]1NC(=O)[C@H](CCN)NC(=O)[C@@H](NC(=O)[C@H](CN)NC(=O)[C@@H](NC(=O)[C@H](CCN)NC(=O)c2ncc(Br)cc2Br)[C@@H](C)O)CCNC(=O)[C@H]([C@@H](C)O)NC(=O)[C@H](CCN)NC(=O)[C@H](CCN)NC(=O)[C@H]([C@@H](C)O)NC1=O [Compound 29] (X36-[Dab]T[Dap][Dab][Dab][dL]T[Dab][Dab]T; lactam 4-C) | 0.5 µg/mL (≈ 0.395 µM) | 0.25 µg/mL (≈ 0.197 µM) | 2 µg/mL (≈ 1.58 µM) | 0.5 µg/mL (≈ 0.395 µM) | 0.25 µg/mL (≈ 0.197 µM) | 1 µg/mL (≈ 0.79 µM) | 1 µg/mL (≈ 0.79 µM) | 2 µg/mL (≈ 1.58 µM) | 0.25 µg/mL (≈ 0.197 µM) | 1 µg/mL (≈ 0.79 µM) | 0.25 µg/mL (≈ 0.197 µM) | <0.125 µg/mL | 1 µg/mL (≈ 0.79 µM)
CC(C)C[C@H]1NC(=O)[C@H](CCN)NC(=O)[C@@H](NC(=O)[C@H](CN)NC(=O)[C@@H](NC(=O)[C@H](CCN)NC(=O)c2cc(Cl)ccn2)[C@@H](C)O)CCNC(=O)[C@H]([C@@H](C)O)NC(=O)[C@H](CCN)NC(=O)[C@H](CCN)NC(=O)[C@H](C)NC1=O [Compound 97] (X29-[Dab]T[Dap][Dab][Dab][dL]A[Dab][Dab]T; lactam 4-C) | 0.25 µg/mL (≈ 0.225 µM) | <0.125 µg/mL | 2 µg/mL (≈ 1.8 µM) | 0.25 µg/mL (≈ 0.225 µM) | 0.25 µg/mL (≈ 0.225 µM) | 0.5 µg/mL (≈ 0.449 µM) | 0.25 µg/mL (≈ 0.225 µM) | 2 µg/mL (≈ 1.8 µM) | <0.125 µg/mL | 2 µg/mL (≈ 1.8 µM) | 0.25 µg/mL (≈ 0.225 µM) | 0.25 µg/mL (≈ 0.225 µM) | 2 µg/mL (≈ 1.8 µM)
CC(C)C[C@H]1NC(=O)[C@H](CCN)NC(=O)[C@@H](NC(=O)[C@H](CN)NC(=O)[C@@H](NC(=O)[C@H](CCN)NC(=O)c2cc3ccccc3[nH]2)[C@@H](C)O)CCNC(=O)[C@H]([C@@H](C)O)NC(=O)[C@H](CCN)NC(=O)[C@H](CCN)NC(=O)[C@H](C)NC1=O [Compound 67] (X23-[Dab]T[Dap][Dab][Dab][dL]A[Dab][Dab]T; lactam 4-C) | 0.5 µg/mL (≈ 0.448 µM) | 0.5 µg/mL (≈ 0.448 µM) | 1 µg/mL (≈ 0.896 µM) | 0.5 µg/mL (≈ 0.448 µM) | 0.5 µg/mL (≈ 0.448 µM) | 0.5 µg/mL (≈ 0.448 µM) | 0.25 µg/mL (≈ 0.224 µM) | 2 µg/mL (≈ 1.79 µM) | 0.5 µg/mL (≈ 0.448 µM) | 1 µg/mL (≈ 0.896 µM) | 0.25 µg/mL (≈ 0.224 µM) | 1 µg/mL (≈ 0.896 µM) | 1 µg/mL (≈ 0.896 µM)
CC[C@@H]1NC(=O)[C@@H](CC(C)C)NC(=O)[C@H](CCN)NC(=O)[C@@H](NC(=O)[C@H](CN)NC(=O)[C@@H](NC(=O)[C@H](CCN)NC(=O)c2cc(Cl)cc(Cl)n2)[C@@H](C)O)CCNC(=O)[C@H]([C@@H](C)O)NC(=O)[C@H](CCN)NC(=O)[C@H](CCN)NC1=O [Compound 18] (X2-[Dab]T[Dap][Dab][Dab][dL][Abu][Dab][Dab]T; lactam 4-C) | 0.25 µg/mL (≈ 0.215 µM) | <0.125 µg/mL | 0.25 µg/mL (≈ 0.215 µM) | 0.25 µg/mL (≈ 0.215 µM) | 0.5 µg/mL (≈ 0.431 µM) | 0.25 µg/mL (≈ 0.215 µM) | 0.25 µg/mL (≈ 0.215 µM) | 1 µg/mL (≈ 0.861 µM) | <0.125 µg/mL | 1 µg/mL (≈ 0.861 µM) | 0.5 µg/mL (≈ 0.431 µM) | 0.25 µg/mL (≈ 0.215 µM) | 0.5 µg/mL (≈ 0.431 µM)
CC[C@@H]1NC(=O)[C@@H](CC(C)C)NC(=O)[C@H](CCN)NC(=O)[C@@H](NC(=O)[C@H](CN)NC(=O)[C@@H](NC(=O)[C@H](CCN)NC(=O)c2cncc(Cl)c2)[C@@H](C)O)CCNC(=O)[C@H]([C@@H](C)O)NC(=O)[C@H](CCN)NC(=O)[C@H](CCN)NC1=O [Compound 6] (X3-[Dab]T[Dap][Dab][Dab][dL][Abu][Dab][Dab]T; lactam 4-C) | 0.5 µg/mL (≈ 0.444 µM) | <0.125 µg/mL | 2 µg/mL (≈ 1.78 µM) | 0.5 µg/mL (≈ 0.444 µM) | <0.125 µg/mL | 0.25 µg/mL (≈ 0.222 µM) | 1 µg/mL (≈ 0.888 µM) | 2 µg/mL (≈ 1.78 µM) | 0.25 µg/mL (≈ 0.222 µM) | 0.5 µg/mL (≈ 0.444 µM) | 1 µg/mL (≈ 0.888 µM) | 0.25 µg/mL (≈ 0.222 µM) | 1 µg/mL (≈ 0.888 µM)
CC[C@@H]1NC(=O)[C@@H](CC(C)C)NC(=O)[C@H](CCN)NC(=O)[C@@H](NC(=O)[C@H](CN)NC(=O)[C@@H](NC(=O)[C@H](CCN)NC(=O)c2ccc(Br)n2C)[C@@H](C)O)CCNC(=O)[C@H]([C@@H](C)O)NC(=O)[C@H](CCN)NC(=O)[C@H](CCN)NC1=O [Compound 93] (X59-[Dab]T[Dap][Dab][Dab][dL][Abu][Dab][Dab]T; lactam 4-C; N-terminus assumed) | 0.5 µg/mL (≈ 0.426 µM) | <0.125 µg/mL | 1 µg/mL (≈ 0.852 µM) | 0.25 µg/mL (≈ 0.213 µM) | 0.5 µg/mL (≈ 0.426 µM) | 0.5 µg/mL (≈ 0.426 µM) | 0.5 µg/mL (≈ 0.426 µM) | 2 µg/mL (≈ 1.7 µM) | <0.125 µg/mL | 1 µg/mL (≈ 0.852 µM) | 0.5 µg/mL (≈ 0.426 µM) | 0.25 µg/mL (≈ 0.213 µM) | 0.5 µg/mL (≈ 0.426 µM)
